The structures appear in SMILES notation. Like-named read-outs stand apart in the source and are kept apart here.

These results are taken from US11203577B2, “Sulfonyl-structure-containing triazinone derivatives, their preparation methods and their uses in insect killing and/or bacterium killing” (Nankai University, priority 2017, dated 2021).

Data set [1] has as its system Cucumber fusarium wilt. As to the kind of experiment: In vitro fungicidal activity, PDA colony diameter. Format: cell-based. Conditions: 96 h, 50 mg/kg, inhibition of colony diameter, read-out: Fungicidal activity (%) Cucumber fusarium wilt.
Data set [2] has as its system Potato late blight. The experiment in a line: microbe, parasite or virus in culture. It counts as cell-based. Conditions: Phytophthora infestans, 96 h, read-out: Fungicidal activity (%) Potato late blight.
In data set [3] the test system is Rice sheath blight. As to the kind of experiment: In vitro fungicidal activity, PDA colony diameter. It counts as cell-based. Conditions: read-out: Fungicidal activity (%) Rice sheath blight.
The test system of data set [4] is Armyworms. As to the kind of experiment: Test of insecticidal activity against armyworms (leaf immersion). Conditions: 600 mg/kg, 3-4 days.
In data set [5] the test system is Sclerotinia rot of colza. The experiment in a line: In vitro fungicidal activity, PDA colony diameter. Format: cell-based. To be noted: 96 h, 50 mg/kg, inhibition of colony diameter, read-out: Fungicidal activity (%) Sclerotinia rot of colza.
In data set [6] the test system is Corn southern leaf blight. The experiment in a line: In vitro fungicidal activity, PDA colony diameter. Conditions: 50 mg/kg, inhibition of colony diameter; read-out: Fungicidal activity (%) Corn southern leaf blight. Format: cell-based.
Data set [7] has as its system Watermelon anthracnose. As to the kind of experiment: In vitro fungicidal activity, PDA colony diameter. Format: cell-based. Conditions: 50 mg/kg, inhibition of colony diameter; read-out: Fungicidal activity (%) Watermelon anthracnose.
The test system of data set [8] is Maize borers. As to the kind of experiment: Test of insecticidal activity against maize borers (leaf immersion). To be noted: read-out: Mortalities (%) Maize borers.
Data set [9] deals with Cotton bollworms. As to the kind of experiment: Test of insecticidal activity against cotton bollworms (pesticide mixed into feedstuff). Conditions: read-out: Mortalities (%) Cotton bollworms.
Description: Method of testing against cotton bollworms: the pesticide is mixed into the feedstuff, i.e., 3 mL prepared solution is added into about 27 g freshly prepared feedstuff; thus, required concentration is obtained by diluting by 10 times.
Data set [10] concerns Cercospora brown spot of peanut. As to the kind of experiment: In vitro fungicidal activity, PDA colony diameter. To be noted: 96 h, 50 mg/kg, inhibition of colony diameter, read-out: Fungicidal activity (%) Cercospora brown spot of peanut. It counts as cell-based.
The subject of data set [11] is Apple ring rot. As to the kind of experiment: In vitro fungicidal activity, PDA colony diameter. It counts as cell-based. To be noted: inhibition of colony diameter. The method in brief: (§1)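 Percent growth inhibition derived from colony diameter versus compound-free PDA control after 4 days' culture. Plates contained compound at 50 mg/kg; inoculum was a plug taken from the periphery of a 7-day PDA culture.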

Data set [12] has as its system Capsicum phytophthora blight. The experiment in a line: In vitro fungicidal activity, PDA colony diameter. It counts as cell-based. Conditions: 96 h. The method in brief: as §1
The subject of data set [13] is Rice bakanae disease. As to the kind of experiment: In vitro fungicidal activity, PDA colony diameter. It counts as cell-based. To be noted: 50 mg/kg, inhibition of colony diameter; read-out: Fungicidal activity (%) Rice bakanae disease.
Data set [14] relates to Wheat sheath blight. As to the kind of experiment: In vitro fungicidal activity, PDA colony diameter. It counts as cell-based. Conditions: 50 mg/kg, inhibition of colony diameter; read-out: Fungicidal activity (%) Wheat sheath blight.
For data set [15], the system named is Wheat head blight. The experiment in a line: whole plant or invertebrate. Format: cell-based. Conditions: Triticum aestivum, read-out: Fungicidal activity (%) Wheat head blight.
Data set [16] relates to bean aphides (Aphis laburni Kaltenbach). The experiment in a line: Test of insecticidal activity against aphides (leaf immersion, checked after 96 h).
The subject of data set [17] is mosquito larvae (Culer pipiens pallens). The experiment in a line: Test of insecticidal activity against mosquito larvae (checked after 24 h). To be noted: 24 h, read-out: Mortalities (%) against mosquito larvae.
Description: Method of testing against mosquito larvae: the tested mosquito larvae are Culer pipiens pallens, a normal colony fed indoor. About 5 mg compound to be tested is weighed and loaded into a penicillin vial, 5 mL acetone (or an appropriate solvent) is added into the vial, and the vial is oscillated to dissolve the compound; thus, 1,000 ppm mother liquid is obtained. 1 mL mother liquid is weighed and added into a 100 mL beaker filled with 89 mL water, 10 mosquito larvae in the early stage of the 4th instar together with 10 mL feeding solution are poured into the beaker; thus, the concentration of the pesticide solution is 10 ppm (the pesticide solutions with other concentrations are attained by diluting the mother liquid by corresponding times). […] Water solution that contains 0.5 mL test solvent is used as a blank sample.
The subject of data set [18] is Tomato early blight. The experiment in a line: In vitro fungicidal activity, PDA colony diameter. Format: cell-based, Alternaria solani. To be noted: 50 mg/kg, inhibition of colony diameter; read-out: Fungicidal activity (%) Tomato early blight.
Where [19] appears, read: Aphis, 96 h, read-out: Mortalities (%) against aphides.
The mark [20] stands for this setting: 50 mg/kg, inhibition of colony diameter.

On to `CC1=NNC(=O)N(NS(=O)(=O)c2c(C)noc2C)C1` [Ia-30, 3,5-dimethyl-N-(6-methyl-3-oxo-2,3-dihydro-1,2,4-triazin-4(5H)-yl)-isoxazolyl-4-sulfonamide], for which the inhibition of growth at 50 mg/kg in data set [1] worked out at 23.1%; in [2] it was 14.3%; in data set [5], 12.5%; in data set [10], 19.2%; in [12], 11.5%. In addition, the inhibition at 50 mg/kg in data set [3] amounted to 14.3%; in [6], 19.4%; in [7] it was 25%; in [11] it was 23.8%; in data set [13], 14.8%; in data set [14], 7.5%. Further, the inhibition at 50 mg/kg in data set [15] was determined as 12.1%; in [18], 20%. Further, the “Mortalities (%) Armyworms” value in [4] came to 20%. Moreover, the mortality at 600 mg/kg was 15% in data set [8], 25% in data set [9] and 95% in data set [16] (setting [19]). Also, the mortality at 100 mg/kg in [16] (setting [19]) stood at 45%. Also, in [17], the mortality at 10 mg/kg is 35%.
With `CC1=NNC(=O)N(NS(=O)(=O)c2ccc(C(C)(C)C)cc2)C1` [Ia-15, 4-tert-butyl-N-(6-methyl-3-oxo-2,3-dihydro-1,2,4-triazin-4(5H)-yl)-benzenesulfonamide], the inhibition of growth at 50 mg/kg in [1] came out at 8.8%; in [2] it was 9.7%; in data set [5] it was 15.8%; in data set [10], 12%; in data set [12], 5.6%. For the same compound, the inhibition at 50 mg/kg in data set [3] (setting [20]) was 17.4%; in [6] it was 9.3%; in data set [7], 14.7%; in [11], 16.2%; in [13] it was 24.1%; in [14], 9.3%. The inhibition at 50 mg/kg was 13.5% in [15] and 20.9% in data set [18]. For the same compound, the “Mortalities (%) Armyworms” value in data set [4] came out at 60%. For the same compound, the mortality at 600 mg/kg in data set [8] turned out to be 45%; in [9] it was 40%; in data set [16] (setting [19]), 100%. The mortality at 2.5 mg/kg in data set [16] (setting [19]) was determined as 10%. Further, the mortality at 5 mg/kg in data set [16] (setting [19]) came to 85%; in [17] it was 100%. In addition, the mortality at 10 mg/kg in data set [16] (setting [19]) and in [17] was 100% each time. Also, the mortality at 100 mg/kg in data set [16] (setting [19]) is 100%. Also, the mortality at 2 mg/kg in [17] was 40%.
Take `CC1=NNC(=O)N(NS(=O)(=O)c2ccsc2)C1` [Ia-29, N-(6-methyl-3-oxo-2,3-dihydro-1,2,4-triazin-4(5H)-yl)-thienyl-3-sulfonamide]: the inhibition of growth at 50 mg/kg in data set [1] is 12.8%; in [2], 23.8%; in data set [5], 12.5%; in data set [10] it was 19.2%; in data set [12], 23.1%. For the same compound, the inhibition at 50 mg/kg in data set [3] (setting [20]) stood at 35.7%; in [6], 13.9%; in [7], 18.8%; in data set [11], 52.4%; in [13], 3.7%; in data set [14] it was 20.8%. Besides, the values for the inhibition at 50 mg/kg in [15] and in data set [18] were 21.2% and 25%, respectively. In [4], the “Mortalities (%) Armyworms” value turned out to be 10%. Also, the mortality at 600 mg/kg in [8] amounted to 15%; in data set [9], 20%; in data set [16] (setting [19]) it was 95%. Besides, the mortality at 10 mg/kg in data set [16] (setting [19]) is 30%; in data set [17] it was 35%. For the same compound, the mortality at 100 mg/kg in data set [16] (setting [19]) was determined as 85%.
`CC1=NNC(=O)N(NS(=O)(=O)c2cn(C)cn2)C1` [Ia-31, 1-methyl-N-(6-methyl-3-oxo-2,3-dihydro-1,2,4-triazin-4(5H)-yl)-1H-imidazolyl-4-sulfonamide]: the inhibition of growth at 50 mg/kg came out at 14.7% in [1]; 18.8% in [2]; 31.6% in data set [5]; 13% in data set [10]; 18.8% in [12]. Also, the inhibition at 50 mg/kg is 5.8% in data set [3] (setting [20]); 2.6% in [6]; 28.1% in data set [7]; 29.4% in [11]; 12.5% in data set [13]; 47.1% in [14]. In addition, the inhibition at 50 mg/kg stood at 17.2% in [15] and 16.1% in data set [18]. Further, the “Mortalities (%) Armyworms” value in data set [4] amounted to 10%. The mortality at 600 mg/kg amounted to 15% in data set [8], 5% in data set [9] and 100% in [16] (setting [19]). Moreover, the mortality at 10 mg/kg in [16] (setting [19]) amounted to 35%; in data set [17], 60%. Also, the mortality at 100 mg/kg in data set [16] (setting [19]) was 100%.
As for `CC1=NNC(=O)N(NS(=O)(=O)c2ccccc2F)C1` [Ia-16, 2-fluoro-N-(6-methyl-3-oxo-2,3-dihydro-1,2,4-triazin-4(5H)-yl)-benzenesulfonamide], the inhibition of growth at 50 mg/kg in data set [1] came to 2.9%; in data set [2], 3.1%; in data set [5], 15.8%; in data set [10] it was 8%; in [12], 13.9%. The inhibition at 50 mg/kg in data set [3] (setting [20]) came to 11.6%; in data set [6] it was 0%; in data set [7], 8.2%; in [11] it was 17.6%; in [13] it was 27.6%; in [14], 14.3%. The inhibition at 50 mg/kg in data set [15] amounted to 10.8%; in data set [18], 13.4%. For the same compound, in [4], the “Mortalities (%) Armyworms” value was 10%. The mortality at 600 mg/kg was 15% in data set [8], 10% in data set [9] and 100% in [16] (setting [19]). Besides, the “insecticidal activity against aphides compared with pymetrozine” value in data set [16] (5 mg/kg) is “equivalent to the insecticidal activity of pymetrozine”. Also, the mortality at 5 mg/kg in data set [16] (setting [19]) worked out at 30%; in data set [17] it was 100%. Moreover, the figures for the mortality at 10 mg/kg in [16] (setting [19]) and in data set [17] were 90% and 100%, respectively. In addition, in data set [16] (setting [19]), the mortality at 100 mg/kg worked out at 100%. Further, the mortality at 2 mg/kg in [17] stood at 30%.
As to `CCS(=O)(=O)NN1CC(C)=NNC1=O` [Ia-2, N-(6-methyl-3-oxo-2,3-dihydro-1,2,4-triazin-4(5H)-yl)-ethylsulfonamide], the inhibition of growth at 50 mg/kg in data set [1] was determined as 5%; in [2] it was 22.2%; in [5] it was 56.7%; in data set [10], 15.8%; in [12] it was 36.7%. Further, the inhibition at 50 mg/kg amounted to 34.9% in data set [3] (setting [20]); 29.2% in data set [6]; 33.3% in [7]; 20.7% in [11]; 50% in data set [13]; 63.6% in data set [14]. Also, the inhibition at 50 mg/kg was 20% in [15] and 33.3% in data set [18]. In addition, in data set [4], the “Mortalities (%) Armyworms” value was determined as 10%. The values for the mortality at 600 mg/kg in data set [8], in [9] and in data set [16] (setting [19]) were 15%, 5% and 100%, respectively. Further, the mortality at 10 mg/kg was 50% in data set [16] (setting [19]) and 20% in data set [17]. Besides, in data set [16] (setting [19]), the mortality at 100 mg/kg was found to be 90%.
